Data as given in patent publication US20240277744A1, “TREATMENT OF CHEMORESISTANT CANCER CELLS” (Cornell University, priority 2023, published 2024).

Key:
SW1990GR cells [1] = test: Annexin V/DAPI apoptosis by flow cytometry; format: cell-based; details: 100 nM or 200 nM CYM, one day; TRA-1-81+ and TRA-1-81− subpopulations
Method: Flow cytometry. TRA-1-60 PerCP-efluor710 (eBioscience, 1:50) and TRA-1-81 PE (eBioscience, 1:100) were used. Cells were blocked with 5% FBS plus mouse IgM isotype control antibody (eBioscience, 1:100) at room temperature for 15 min, then stained on ice for 30 min. Stained cells were resuspended in PBS containing 300 nM DAPI and proceeded to analysis or sorting. Cell apoptosis was analyzed with FITC-AnnexinV labeling reagent (BD). Flow cytometry analysis was carried out on BD FACS Calibur with FlowJo 9.8 software. Sorting was performed with FACSVantage SE (Becton Dickinson).

SW1990 xenograft tumors = test: Luciferase-labeled SW1990 xenograft in nude mice; format: in vivo
Method: CYM suppresses TRA-1-60 expression and blocks tumor growth in vivo. Next it was sought to validate the effects of CYM in vivo, using a xenograft model with luciferase-labeled SW1990 cells propagated in nude mice. Tumor-harboring mice were separated into 4 groups and treated with PBS (control), 2 mg/kg CYM, 50 mg/kg GEM, or 2 mg/kg CYM plus 50 mg/kg GEM through intraperitoneal injections twice per week. Luciferase intensity was quantified twice per week and normalized with the value obtained from the starting day. […] Consistent with imaging, of the four groups, mice treated with GEM plus CYM generated xenograft tumors with the smallest size (FIG. 6C) and weight (FIG. 6D).
Tissue samples were fixed with 4% paraformaldehyde overnight at 4° C., washed with 70% ethanol and then embedded in paraffin. After De-paraffin and rehydration, antigen retrieval was preceded in hot antigen retrieving buffer with a normal-pressure steamer for 30 min. blocking was proceeded 1 hour at room temperature in PBS containing 1% horse serum. Primary antibody was stained overnight at 4° C. in PBS plus 0.5% Triton X-100 and 5% horse serum. Secondary antibody was incubated at room temperature for 1.5 hours.
Mouse Procedures. To assess in vivo effects of Cymarin (CYM), Luciferase-labelled SW1990 cells were transplanted to nude mice subcutaneously. Each mouse received four injections (5×10^5 cells/site). 12 days later, mice were randomly separated into 4 groups and treated with PBS (control), GEM (50 mg/kg bodyweight), CYM (2 mg/kg bodyweight) or GEM (50 mg/kg bodyweight) plus CYM (2 mg/kg bodyweight) twice weekly via intraperitoneal injection. Image acquisition was performed twice weekly with Xtreme Optical and X-ray small animal imaging system. Luciferin potassium salt (Regis), substrate of luciferase, was applied at 2 mg/25 g bodyweight in 150 μl PBS. Isoflurane (Henry Schein) was used for anesthesia during imaging.

SW1990 cells = test: Growth curve / proliferation assay; format: cell-based; details: SW1990, 50 nM CYM
Method: (§1) To quantify growth, Cells were seeded into 96-well plates (2000/well). After overnight incubation, medium with indicated drug was refreshed. Cell proliferation was quantified every 2 days using CellTiter 96® AQueous Non-Radioactive Cell Proliferation Assay (Promega).

SW1990GR cells [2] = test: Growth curve / proliferation assay; format: cell-based; details: 25 nM CYM
Method: as §1

HT-29 cells = test: Cell viability with GEM and CYM; format: cell-based; details: HT-29, 50 nM GEM and 25 nM CYM, 5 days
Method: (§2) Cell viability, colony formation, sphere formation and growth curve. To quantify viability, cells were plated into 96-well plates (6000/well) one night before treatment. Drugs were then added in indicated dose for 5 days. After fixation, cell nuclei were stained with DAPI (Invitrogen). Plates were analyzed using MetaXpress High Content Image Acquisition and Analysis System (Molecular Devices).

HPAF-II cells = test: Cell viability with GEM and CYM; format: cell-based; details: 50 nM GEM and 25 nM CYM, 5 days
Method: as §2

TRA-1-60+ SW1990GR cells = test: High content screen / immunofluorescent staining of TRA-1-60+ cells; format: cell-based
Method: Immunofluorescent staining. Primary antibodies were TRA-1-60 antibody (BD, 1:200), biotin conjugated TRA-1-60 antibody (eBioscience, 1:200). Secondary antibodies were donkey anti-mouse Alexa-efluor594 (Life technologies, 1:500) or streptavidin conjugated Alexa Fluor® 594 (Life technologies, 1:200).
Cells were fixed with 10% formalin for 20 min at room temperature. After 1 hour blocking in PBS with 5% horse serum and 0.3% triton-X100, primary antibodies were added to cells and incubated overnight at 4° C. Secondary antibody incubation was 1.5 hours at room temperature.
Chemical library screening. The Prestwick library of FDA approved drugs (˜1280 chemicals) plus a collection of drugs in clinical trials was used for the screen on SW1990GR cells.
For screening, SW1990GR cells were plated in 384-well plates (5000 cells/well). After overnight incubation, chemicals were added at 1 μM or 10 μM in duplicate. After 5 days of treatment, plates were stained with TRA-1-60 antibody and analyzed with MetaXpress High Content Image Acquisition and Analysis System (Molecular Devices). Wells treated with DMSO were set as control. The reduction was calculated by subtracting the percentage of TRA-1-60^+ cells in the chemical-treated wells from that of control wells. Standard deviation of TRA-1-60^+ percentage in control wells was calculated and 3-fold of this value was taken as threshold to pick up the primary hit.

[3] = system: UGT1A10 overexpressing SW1990 cells; test: Cell viability of UGT1A10 overexpressing cells; format: cell-based; details: 50 nM CYM, control vs UGT1A10 overexpressing SW1990
Description: To determine whether UTG1A10 is sufficient to induce TRA-1-81 expression and chemoresistance, UGT1A10 was overexpressed ectopically in SW1990 cells (UGT-OE). Cells expressing firefly luciferase were used as control (CTRL). […] Indeed, the viability of UGT-OE cells is higher than control cells following GEM treatment (FIG. 4G). […] In summary, UGT1A10 is both required and sufficient to enhance TRA-1-60 and TRA-1-81 expression and chemoresistance.
LentiLuc-blast and LentiUGT1A10-blast plasmid were generated based on LentiCas9-blast vector (Addgene, 52926). Luciferasec DNA was cloned from pGL3-promoter plasmid (Promega) with PCR amplification and inserted between AgeI and BamHI sites. UGT1A10 cDNA was PCR amplified from plasmid purchased from Dharmacon (MHS6278-202756114) and inserted between XbaI and BamHI sites. Primers were used as below: […]
as §2

CO[C@H]1C[C@H](O[C@H]2CC[C@]3(C=O)[C@H]4CC[C@]5(C)[C@@H](C6=CC(=O)OC6)CC[C@]5(O)[C@@H]4CC[C@]3(O)C2)O[C@H](C)[C@H]1O [CYM, Cymarin]
percentage of Annexin V+/DAPI− (early) and Annexin V+/DAPI+ (late) apoptotic cells (SW1990GR cells [1]): increased | tumor growth (luciferase intensity) (SW1990 xenograft tumors; 3 weeks, i.p. twice per week, GEM 50 mg/kg, CYM 2 mg/kg): grew more slowly | percentage of TRA-1-60+ cells in xenograft tumors (SW1990 xenograft tumors; CYM administration in GEM-treated tumors, immunofluorescence): ~13% | cell apoptosis in xenograft tumors (TUNEL+ cells) (SW1990 xenograft tumors; TUNEL assay): cell death increased | proliferation (SW1990 cells): significantly decreased the proliferation | proliferation (SW1990GR cells [2]): sufficient to block the proliferation | survival of GEM-resistant cells (HT-29 cells): significantly decreased the survival | survival of GEM-resistant cells (HPAF-II cells): significantly decreased the survival | percentage of TRA-1-60+ cells after treatment (TRA-1-60+ SW1990GR cells; 25 nM CYM, 5 days, SW1990GR, from ~18%): less than 5% | relative potency in TRA-1-60 inhibition (TRA-1-60+ SW1990GR cells; SW1990GR): higher potency than Ouabain | validation of primary hit (TRA-1-60+ SW1990GR cells; SW1990GR): able to be validated | IC50 (TRA-1-60+ SW1990GR cells; read-out: IC50, decrease of percentage of TRA-1-60+ cells): 0.0152 ± 0.0043 µM | effect of ectopic UGT1A10 expression on Cymarin anti-chemoresistant activity [3]: partially rescues
